From US8440646B1 (priority 2006, dated 2013)
Values after ≈ are worked out from the molar mass of the structure shown. Where two headings read alike, the source gives them in different places.

What was measured:
S. pneumoniae 700905 [1] = assay: microbe, parasite or virus in culture; assay type: cell-based; settings: Streptococcus pneumoniae
B. anthracis Ame = assay: microbe, parasite or virus in culture; assay type: cell-based; settings: Bacillus anthracis
S. aureus MRSA5 = assay: microbe, parasite or virus in culture; assay type: cell-based; settings: Staphylococcus aureus
COS-1 = settings: African green monkey
B. anthracis Sterne = assay: microbe, parasite or virus in culture; assay type: cell-based; settings: Bacillus anthracis
E. faecalis 29212 = assay: microbe, parasite or virus in culture; assay type: cell-based; settings: Enterococcus faecalis
E. faecium 494 = assay: microbe, parasite or virus in culture; assay type: cell-based; settings: Enterococcus faecium
B. anthracis Vollum1B = assay: microbe, parasite or virus in culture; assay type: cell-based; settings: Bacillus anthracis
CHO-K1 = settings: Chinese hamster
B. anthracis V770 = assay: microbe, parasite or virus in culture; assay type: cell-based; settings: Bacillus anthracis
S. pneumoniae 157E [2] = assay: microbe, parasite or virus in culture; assay type: cell-based; settings: Streptococcus pneumoniae
[3] = test system: Protein synthesis of S. aureus RN450; assay: microbe, parasite or virus in culture; assay type: cell-based; settings: for IC50 / IC90: Staphylococcus aureus; for IC50: read-out: Protein synthesis IC50; for IC90: read-out: Protein synthesis IC90
[4] = test system: Peptidoglycan synthesis of S. aureus RN450; assay: microbe, parasite or virus in culture; assay type: cell-based; settings: for IC50 / IC90: Staphylococcus aureus; for IC50: read-out: Peptidoglycan synthesis IC50; for IC90: read-out: Peptidoglycan synthesis IC90
S. aureus RN450 = assay: microbe, parasite or virus in culture; assay type: cell-based; settings: Staphylococcus aureus
B. cereus 97/4144 = assay: microbe, parasite or virus in culture; assay type: cell-based; settings: Bacillus cereus
S. pneumoniae 157E [5] = test system: S. pneumoniae 157E; set-up: species or system mice; settings: mouse, in vivo
B. cereus 98/2658 = assay: microbe, parasite or virus in culture; assay type: cell-based; settings: Bacillus cereus
S. pneumoniae PBS1339 = test system: S. pneumoniae PBS1339; set-up: species or system mice; settings: mouse, in vivo
S. aureus RN4250 = assay: microbe, parasite or virus in culture; assay type: cell-based; settings: for MIC: Staphylococcus aureus, RN4250
protein synthesis = settings: cited from earlier work
B. cereus 98/2620 = assay: microbe, parasite or virus in culture; assay type: cell-based; settings: Bacillus cereus
B. cereus 95/3032 = assay: microbe, parasite or virus in culture; assay type: cell-based; settings: Bacillus cereus
16S rRNA = settings: cited from earlier work
S. pneumoniae 700905 [6] = test system: S. pneumoniae 700905; set-up: species or system mice; settings: mouse, in vivo

| Structure (SMILES) | MIC (S. pneumoniae 700905 [1]) | MIC (S. aureus MRSA5) | MIC (S. pneumoniae 157E [2]) | IC50 [3] | IC90 [3] | IC50 [4] | IC90 [4] | MIC (S. aureus RN450) | MIC (B. cereus 97/4144) | MIC (B. cereus 98/2658) | MIC (B. cereus 98/2620) | MIC (B. cereus 95/3032) | other results |
| --- | --- | --- | --- | --- | --- | --- | --- | --- | --- | --- | --- | --- | --- |
| CC(C)c1cc(CN2CC=CCC2)c(O)c2c1C[C@H]1C[C@H]3[C@H](N(C)C)C(O)=C(C(N)=O)C(=O)[C@@]3(O)C(O)=C1C2=O [AF] | 0.06 µg/mL (≈ 0.109 µM) | 0.13 µg/mL (≈ 0.236 µM) | – | – | – | – | – | – | – | – | – | – | MIC (B. anthracis Ame): < 0.03 µg/mL; Tox50 (COS-1): >100 µg/mL; MIC (B. anthracis Sterne): < 0.03 µg/mL; MIC (E. faecalis 29212): 0.13 µg/mL (≈ 0.236 µM); MIC (E. faecium 494): 0.25 µg/mL (≈ 0.453 µM); MIC (B. anthracis Vollum1B): < 0.03 µg/mL; Tox50 (CHO-K1): >100 µg/mL; MIC (B. anthracis V770): 0.06 µg/mL (≈ 0.109 µM) |
| CN(C)[C@@H]1C(O)=C(C(N)=O)C(=O)[C@@]2(O)C(O)=C3C(=O)c4c(O)ccc(C#Cc5ccc(N)cc5)c4C[C@H]3C[C@@H]12 [AA] | 1 µg/mL (≈ 1.89 µM) | 0.5 µg/mL (≈ 0.944 µM) | 0.5 µg/mL (≈ 0.944 µM) | 0.14 µg/mL (≈ 0.264 µM) | 1.4 µg/mL (≈ 2.64 µM) | 3.8 µg/mL (≈ 7.18 µM) | 23 µg/mL (≈ 43.4 µM) | 1 µg/mL (≈ 1.89 µM) | – | – | – | – | macromolecular synthesis profile in words [3]: profile similar to class I compounds; effect on peptidoglycan biosynthesis in words [4]: affect peptidoglycan biosynthesis |
| CN(C)c1ccc(O)c2c1C[C@H]1C[C@H]3[C@H](N(C)C)C(O)=C(C(N)=O)C(=O)[C@@]3(O)C(O)=C1C2=O [Minocycline, reference compound] | 8 µg/mL (≈ 17.5 µM) | 2 µg/mL (≈ 4.37 µM) | 0.06 µg/mL (≈ 0.131 µM) | < 0.03 µg/mL | 0.1 µg/mL (≈ 0.219 µM) | 4.6 µg/mL (≈ 10.1 µM) | 20.9 µg/mL (≈ 45.7 µM) | 0.25 µg/mL (≈ 0.546 µM) | 0.5 µg/mL (≈ 1.09 µM) | ≤ 0.06 µg/mL | 0.5 µg/mL (≈ 1.09 µM) | ≤ 0.06 µg/mL | PD50 (S. pneumoniae 157E [5]; iv): 0.53 mg/kg; PD50 (S. pneumoniae 157E [5]; po): 1.5 mg/kg; PD50 (S. pneumoniae PBS1339; iv): 4.5 mg/kg; PD50 (S. pneumoniae PBS1339; po): 3.6 mg/kg; susceptibility in words (S. aureus RN4250): susceptible; MIC (S. aureus RN4250): 0.5 µg/mL (≈ 1.09 µM); MIC (E. faecalis 29212): 4 µg/mL (≈ 8.74 µM); MIC (E. faecium 494): 16 µg/mL (≈ 35 µM); inhibition of protein synthesis in words (protein synthesis): potent inhibitors of protein synthesis; effect on reactivity of nucleotides within the 16S rRNA (chemical footprint) (16S rRNA): affect the reactivity of nucleotides; PD50 (S. pneumoniae 700905 [6]; iv): >50 mg/kg; PD50 (S. pneumoniae 700905 [6]; po): >50 mg/kg |
| CC1(C)S[C@@H]2[C@H](NC(=O)[C@H](N)c3ccccc3)C(=O)N2[C@H]1C(=O)O [Ampicillin, reference compound] | – | – | – | – | – | – | – | – | – | – | – | – | PD50 (S. pneumoniae 157E [5]; iv): 0.6 mg/kg; PD50 (S. pneumoniae 157E [5]; po): 1.1 mg/kg; PD50 (S. pneumoniae PBS1339; po): 3.2 mg/kg; PD50 (S. pneumoniae 700905 [6]; iv): 43.7 mg/kg; PD50 (S. pneumoniae 700905 [6]; po): >50 mg/kg |
| Cc1c2c(c(O)c3c(O)cccc13)C(=O)[C@]1(O)C(=O)C(C(N)=O)=C(O)[C@@H](N(C)C)[C@@H]1C2 [Anhydro-tetracycline, anhydrotetracycline, reference compound] | – | – | – | < 0.03 µg/mL | < 0.03 µg/mL | 19.2 µg/mL (≈ 45 µM) | > 32 µg/mL | 2 µg/mL (≈ 4.69 µM) | – | – | – | – | inhibition of protein synthesis in words (protein synthesis): weak effects; effect on reactivity of nucleotides within the 16S rRNA (chemical footprint) (16S rRNA): A similar effect was not seen |
| CC[C@H]1OC(=O)[C@H](C)[C@@H](O[C@H]2C[C@@](C)(OC)[C@@H](O)[C@H](C)O2)[C@H](C)[C@@H](O[C@@H]2O[C@H](C)C[C@H](N(C)C)[C@H]2O)[C@](C)(O)C[C@@H](C)C(=O)[C@H](C)[C@@H](O)[C@]1(C)O [Erythromycin] | – | – | – | – | – | – | – | – | 0.125 µg/mL (≈ 0.17 µM) | 1 µg/mL (≈ 1.36 µM) | 0.06 µg/mL (≈ 0.0818 µM) | 0.125 µg/mL (≈ 0.17 µM) | – |
| CN(C)c1cc(NC(=O)CNC(C)(C)C)c(O)c2c1C[C@H]1C[C@H]3[C@H](N(C)C)C(O)=C(C(N)=O)C(=O)[C@@]3(O)C(O)=C1C2=O [Tigecycline, reference compound] | – | – | – | 0.12 µg/mL (≈ 0.205 µM) | 0.68 µg/mL (≈ 1.16 µM) | > 32 µg/mL | > 32 µg/mL | 2 µg/mL (≈ 3.41 µM) | – | – | – | – | macromolecular synthesis profile in words [3]: profile similar to class I compounds; effect on reactivity of nucleotides within the 16S rRNA (chemical footprint) (16S rRNA): chemical footprint similar to that of tetracycline |
| CN(C)[C@@H]1C(O)=C(C(N)=O)C(=O)[C@@]2(O)C(O)=C3C(=O)c4c(O)ccc(-c5ccc(NC(=O)c6ccno6)cc5)c4C[C@H]3C[C@@H]12 [AE] | 1 µg/mL (≈ 1.67 µM) | 0.5 µg/mL (≈ 0.833 µM) | 0.13 µg/mL (≈ 0.216 µM) | 0.07 µg/mL (≈ 0.117 µM) | 0.62 µg/mL (≈ 1.03 µM) | 6 µg/mL (≈ 9.99 µM) | > 32 µg/mL | 0.06 µg/mL (≈ 0.0999 µM) | – | – | – | – | – |
| CN(C)C1C(O)=C(C(N)=O)C(=O)C2(O)C(O)=C3C(=O)c4c(O)cccc4C(C)(O)C3CC12 (stereo not drawn) [Tetracycline, reference compound] | 32 µg/mL (≈ 72 µM) | 32 µg/mL (≈ 72 µM) | 0.06 µg/mL (≈ 0.135 µM) | < 0.03 µg/mL | 0.11 µg/mL (≈ 0.248 µM) | > 32 µg/mL | > 32 µg/mL | 0.06 µg/mL (≈ 0.135 µM) | 64 µg/mL (≈ 144 µM) | ≤ 0.06 µg/mL | 32 µg/mL (≈ 72 µM) | ≤ 0.06 µg/mL | susceptibility in words (S. aureus RN4250): resistant; MIC (S. aureus RN4250): 64 µg/mL (≈ 144 µM); MIC (E. faecalis 29212): 16 µg/mL (≈ 36 µM); MIC (E. faecium 494): 64 µg/mL (≈ 144 µM); inhibition of protein synthesis in words (protein synthesis): potent inhibitors of protein synthesis; effect on reactivity of nucleotides within the 16S rRNA (chemical footprint) (16S rRNA): affect the reactivity of nucleotides |
| O=C(O)c1cn(C2CC2)c2cc(N3CCNCC3)c(F)cc2c1=O [Ciprofloxacin, reference compound] | – | – | – | – | – | – | – | – | – | – | – | – | PD50 (S. pneumoniae 157E [5]; iv): >50 mg/kg; MIC (B. anthracis Ame): 0.25 µg/mL (≈ 0.754 µM); MIC (B. anthracis Sterne): 0.25 µg/mL (≈ 0.754 µM); MIC (B. anthracis Vollum1B): 0.25 µg/mL (≈ 0.754 µM); PD50 (S. pneumoniae 700905 [6]; po): >50 mg/kg; MIC (B. anthracis V770): 0.12 µg/mL (≈ 0.362 µM) |
| CN(C)[C@@H]1C(O)=C(C(N)=O)C(=O)[C@@]2(O)C(O)=C3C(=O)c4c(O)ccc(-c5ccc(CO)cc5)c4C[C@H]3C[C@@H]12 [AB] | 4 µg/mL (≈ 7.68 µM) | 1 µg/mL (≈ 1.92 µM) | 0.06 µg/mL (≈ 0.115 µM) | 0.19 µg/mL (≈ 0.365 µM) | 1.8 µg/mL (≈ 3.46 µM) | 18.3 µg/mL (≈ 35.2 µM) | > 32 µg/mL | 0.06 µg/mL (≈ 0.115 µM) | – | – | – | – | – |
| CCC[C@@H]1C[C@@H](C(=O)N[C@@H]([C@H]2O[C@H](SC)[C@H](O)[C@@H](O)[C@H]2O)[C@H](C)Cl)N(C)C1 [Clindamycin] | – | – | – | – | – | – | – | – | 0.5 µg/mL (≈ 1.18 µM) | 0.5 µg/mL (≈ 1.18 µM) | 0.25 µg/mL (≈ 0.588 µM) | 0.5 µg/mL (≈ 1.18 µM) | – |
| CN[C@H](CC(C)C)C(=O)N[C@H]1C(=O)N[C@@H](CC(N)=O)C(=O)N[C@H]2C(=O)N[C@H]3C(=O)N[C@H](C(=O)N[C@H](C(=O)O)c4cc(O)cc(O)c4-c4cc3ccc4O)[C@H](O)c3ccc(c(Cl)c3)Oc3cc2cc(c3O[C@@H]2O[C@H](CO)[C@@H](O)[C@H](O)[C@H]2O[C@H]2C[C@](C)(N)[C@H](O)[C@H](C)O2)Oc2ccc(cc2Cl)[C@H]1O [Vancomycin] | – | – | – | – | – | – | – | – | 1 µg/mL (≈ 0.69 µM) | 2 µg/mL (≈ 1.38 µM) | 1 µg/mL (≈ 0.69 µM) | 1 µg/mL (≈ 0.69 µM) | – |
| CO/N=C(\C(=O)N[C@@H]1C(=O)N2C(C(=O)O)=C(COC(C)=O)CS[C@H]12)c1csc(N)n1 [Cefotaxime] | – | – | – | – | – | – | – | – | 32 µg/mL (≈ 70.3 µM) | > 64 µg/mL | 64 µg/mL (≈ 141 µM) | > 64 µg/mL | – |
| Cc1c2c(c(O)c3c(O)ccc(Cl)c13)C(=O)C1(O)C(=O)C(C(N)=O)=C(O)C(N(C)C)C1C2 (stereo not drawn) [4-epi-anhydrochlorotet] | – | – | – | – | – | – | – | – | – | – | – | – | inhibition of protein synthesis in words (protein synthesis): weak effects |
